pIC50: −log10 of the molar value. Read-outs that look alike come from different tables or passages of the source.
Key:
[1] = tested on: B16 mouse melanoma cells; test: cell viability in the B16 cell-based assay (Viability, B16 IC50)
Procedure, shortened: (§1)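 Viability readouts were run alongside the GM3 cell-surface assay in the same B16 and C32 cultures. A figure above 10 indicates no cell death.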

[2] = tested on: GM3 expression on the cell surface, C32 human melanoma cells; test: cell based phenotypic assay, cell surface GM3 by antibody mediated immunofluorescence, C32 (GM3 C32 IC50); conditions: 50% inhibition of GM3 expression on the cell surface
Procedure, shortened: (§2)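 Both lines undergo the phenotypic GM3 assay, and viability is recorded from that same cell-based run.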

[3] = target: T1, glucosylceramide synthase (Homo sapiens, UniProt Q16739); test: microsomal assay measuring conversion of ceramide to glucosylceramide by HPLC (GCS IC50); assay type: biochemical; conditions: concentration causing 50% inhibition of glucosylceramide synthase activity
T1 construct: Microsomes were isolated from A375 human melanoma cells; endogenous in cells; host or cells: A375 human melanoma cells (microsomal fraction, 100,000 g pellet)
T1 sequence (Q16739 1-394): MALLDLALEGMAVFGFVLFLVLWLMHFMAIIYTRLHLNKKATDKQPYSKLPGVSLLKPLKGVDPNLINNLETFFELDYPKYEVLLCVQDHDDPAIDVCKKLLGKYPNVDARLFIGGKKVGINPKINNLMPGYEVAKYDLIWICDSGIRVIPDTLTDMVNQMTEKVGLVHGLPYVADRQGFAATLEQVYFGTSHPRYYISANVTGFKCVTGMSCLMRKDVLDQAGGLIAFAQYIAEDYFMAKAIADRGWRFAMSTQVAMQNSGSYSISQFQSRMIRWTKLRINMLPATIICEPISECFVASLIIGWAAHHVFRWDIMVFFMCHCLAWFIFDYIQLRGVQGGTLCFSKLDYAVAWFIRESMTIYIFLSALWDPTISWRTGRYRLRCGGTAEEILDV
Procedure, shortened: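 IC50 is the compound concentration halving glucosylceramide synthase activity. Activity was measured in microsomes, with HPLC quantifying glucosylceramide formed from ceramide.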

[4] = tested on: C32 human melanoma cells; test: cell viability in the C32 cell-based assay (Viability, C32 IC50); conditions: concentration causing 50% cell death, values greater than 10 represent a lack of cell death
Procedure, shortened: as §1

[5] = tested on: GM3 expression on the cell surface, B16 mouse melanoma cells; test: cell based phenotypic assay, cell surface GM3 by antibody mediated immunofluorescence, B16 (GM3 B16 IC50); conditions: 50% inhibition of GM3 expression on the cell surface
Procedure, shortened: as §2

[6] = Mus musculus, B16, B16 cells, concentration causing 50% cell death, values greater than 10 represent a lack of cell death, read-out: Viability, B16 IC50
[7] = Homo sapiens, C32 human melanoma cells, read-out: GM3 C32 IC50
[8] = Homo sapiens, C32, C32 cells, read-out: Viability, C32 IC50
[9] = Mus musculus, B16 mouse melanoma cells, read-out: GM3 B16 IC50
[10] = Mus musculus, B16, read-out: Viability, B16 IC50
[11] = Homo sapiens, read-out: GM3 C32 IC50, C32 human melanoma cells
[12] = Homo sapiens, C32, read-out: Viability, C32 IC50, C32 cells
[13] = Mus musculus, read-out: GM3 B16 IC50, B16 mouse melanoma cells
[14] = read-out: GM3 C32 IC50, C32 human melanoma cells
[15] = read-out: Viability, C32 IC50, C32 cells
[16] = read-out: GM3 B16 IC50, B16 mouse melanoma cells

| SMILES | pIC50 [1, 6] | pIC50 [2, 7] | pIC50 [3] | pIC50 [4, 8] | pIC50 [5, 9] | other results |
| --- | --- | --- | --- | --- | --- | --- |
| CC(C)(NC(=O)OC1CCN2CCC1CC2)c1ccc(-c2ccc(C(=O)N3CCC(F)(F)CC3)cc2)cc1 (centres unmarked) [Example 271, 1-Azabicyclo[3.2.2]nonan-4-yl 2-(4′-(4,4-difluoropiperidine-1-carbonyl)biphenyl-4-yl)propan-2-ylcarbamate] | ≤ 5.00 | 8.58 | 8.03 | 6.50 | 7.22 |  |
| CCC1(NC(=O)NC(C)(C)c2ccc(-c3ccc(C(=O)N4CCC(F)(F)CC4)cc3)cc2)CN2CCC1CC2 (centres unmarked) [Example 272, 1-(2-(4′-(4,4-Difluoropiperidine-1-carbonyl)biphenyl-4-yl)propan-2-yl)-3-(3-ethylquinuclidin-3-yl)urea] | ≤ 5.00 | 8.67 | 7.79 | 6.00 | 7.60 |  |
| CC(C)(NC(=O)OC1CN2CCC1CC2)c1ccc(-c2ccc(C(=O)N3CC(F)(F)C3)cc2)cc1 (centres unmarked) [Example 273, Quinuclidin-3-yl 2-(4′-(3,3-difluoroazetidine-1-carbonyl)biphenyl-4-yl)propan-2-ylcarbamate] |  |  | 6.97 |  |  | pIC50 [1, 10]: ≤ 5.00; pIC50 [2, 11]: 7.97; pIC50 [4, 12]: 5.50; pIC50 [5, 13]: 7.13 |
| CC(C)(NC(=O)OC1CCN2CCC1CC2)c1ccc(-c2ccc(C(=O)N3CC(F)(F)C3)cc2)cc1 (centres unmarked) [Example 274, 1-Aza-bicyclo[3.2.2]nonan-4-yl 2-(4′-(3,3-difluoroazetidine-1-carbonyl)biphenyl-4-yl)propan-2-ylcarbamate] | ≤ 5.00 | 8.32 | 7.52 | 6.00 | 7.17 |  |
| CCC1(NC(=O)NC(C)(C)c2ccc(-c3ccc(C(=O)N4CC(F)(F)C4)cc3)cc2)CN2CCC1CC2 (centres unmarked) [Example 275, 1-(2-(4′-(3,3-Difluoroazetidine-1-carbonyl)biphenyl-4-yl)propan-2-yl)-3-(3-ethylquinuclidin-3-yl)urea] | ≤ 5.00 | 8.53 | 7.12 | 6.00 | 7.26 |  |
| CC(C)(NC(=O)NC1(C)CCN2CCC1CC2)c1cccc(Oc2cccc(C(=O)N3CCOCC3)c2)c1 (centres unmarked) [Example 276, 1-(4-Methyl-1-azabicyclo[3.2.2]nonan-4-yl)-3-(2-(3-(3-(morpholine-4-carbonyl)phenoxy)phenyl)propan-2-yl)urea] | ≤ 5.00 | 7.53 | 7.70 | 5.50 | 5.82 |  |
| CC(C)(NC(=O)NC1(C)CN2CCC1CC2)c1cccc(Oc2cccc(C(=O)N3CCOCC3)c2)c1 (centres unmarked) [Example 277, 1-(3-Methylquinuclidin-3-yl)-3-(2-(3-(3-(morpholine-4-carbonyl)phenoxy)phenyl)propan-2-yl)urea] | ≤ 5.00 | 7.10 | 7.04 | ≤ 5.00 | 5.69 |  |
| CC(C)(NC(=O)OC1CCN2CCC1CC2)c1cccc(Oc2cccc(C(=O)N3CCOCC3)c2)c1 (centres unmarked) [Example 278, 1-Aza-bicyclo[3.2.2]nonan-4-yl 2-(3-(3-(morpholine-4-carbonyl)phenoxy)phenyl)propan-2-ylcarbamate] | ≤ 5.00 | 7.28 | 6.23 | ≤ 5.00 | 5.84 |  |
| CC(C)(NC(=O)OC1CN2CCC1CC2)c1cccc(Oc2cccc(C(=O)N3CCOCC3)c2)c1 (centres unmarked) [Example 279, Quinuclidin-3-yl 2-(3-(3-(morpholine-4-carbonyl)phenoxy)phenyl)propan-2-ylcarbamate] |  |  | 5.36 |  |  | pIC50 [1, 10]: ≤ 5.00; pIC50 [2, 11]: 6.66; pIC50 [4, 12]: 5.50; pIC50 [5, 13]: 5.41 |
| CC(C)(NC(=O)NC1(C)CN2CCC1CC2)c1ccc(Oc2ccc(C(=O)N3CCOCC3)cc2)cc1 (centres unmarked) [Example 280, 1-(3-Methylquinuclidin-3-yl)-3-(2-(4-(4-(morpholine-4-carbonyl)phenoxy)phenyl)propan-2-yl)urea] | ≤ 5.00 | 7.31 | 6.79 | 6.00 | 5.71 |  |
| CC(C)(NC(=O)NC1(C)CCN2CCC1CC2)c1ccc(Oc2ccc(C(=O)N3CCOCC3)cc2)cc1 (centres unmarked) [Example 281, 1-(4-Methyl-1-azabicyclo[3.2.2]nonan-4-yl)-3-(2-(4-(4-(morpholine-4-carbonyl)phenoxy)phenyl)propan-2-yl)urea] | ≤ 5.00 | 8.11 | 7.50 | 6.00 | 6.36 |  |
| CC(C)(NC(=O)OC1CCN2CCC1CC2)c1ccc(Oc2ccc(C(=O)N3CCOCC3)cc2)cc1 (centres unmarked) [Example 282, 1-Azabicyclo[3.2.2]nonan-4-yl 2-(4-(4-(morpholine-4-carbonyl)phenoxy)phenyl)propan-2-ylcarbamate] | ≤ 5.00 | 7.39 | 6.32 | 5.50 | 6.18 |  |
| CN(C)C(=O)c1ccc(Oc2ccc(C(C)(C)NC(=O)OC3CN4CCC3CC4)cc2)cc1 (centres unmarked) [Example 283, Quinuclidin-3-yl 2-(4-(4-(dimethylcarbamoyl)phenoxy)phenyl)propan-2-ylcarbamate] |  |  | 6.22 |  |  | pIC50 [1, 10]: ≤ 5.00; pIC50 [2, 14]: 6.94; pIC50 [4, 15]: ≤ 5.00; pIC50 [5, 16]: 5.99 |
| CN(C)C(=O)c1ccc(Oc2ccc(C(C)(C)NC(=O)NC3(C)CN4CCC3CC4)cc2)cc1 (centres unmarked) [Example 284, N,N-Dimethyl-4-(4-(2-(3-(3-methylquinuclidin-3-yl)ureido)propan-2-yl)phenoxy)benzamide] | ≤ 5.00 | 7.22 | 6.70 | ≤ 5.00 | 5.42 |  |
| CN(C)C(=O)c1ccc(Oc2ccc(C(C)(C)NC(=O)NC3(C)CCN4CCC3CC4)cc2)cc1 (centres unmarked) [Example 285, N,N-Dimethyl-4-(4-(2-(3-(4-methyl-1-azabicyclo[3.2.2]nonan-4-yl)ureido)propan-2-yl)phenoxy)benzamide] | ≤ 5.00 |  | 7.79 |  |  | pIC50 ([2]; C32 human melanoma cells, read-out: GM3 C32 IC50): 8.19; pIC50 ([4]; C32 cells, read-out: Viability, C32 IC50): 6.00; pIC50 ([5]; B16 mouse melanoma cells, read-out: GM3 B16 IC50): 6.14 |
| CN(C)C(=O)c1ccc(Oc2ccc(C(C)(C)NC(=O)OC3CCN4CCC3CC4)cc2)cc1 (centres unmarked) [Example 286, 1-Azabicyclo[3.2.2]nonan-4-yl 2-(4-(4-(dimethylcarbamoyl)phenoxy)phenyl)propan-2-ylcarbamate] | ≤ 5.00 | 7.50 | 6.36 | ≤ 5.00 | 6.10 |  |
| CN(C)C(=O)c1ccc(Oc2ccc(C(C)(C)NC(=O)OC3CN4CCC3CC4)cc2)cc1 (centres unmarked) [Example 287, Quinuclidin-3-yl 2-(4-(4-(dimethylcarbamoyl)phenoxy)phenyl)propan-2-ylcarbamate] |  |  | 5.88 |  |  | pIC50 ([1]; read-out: Viability, B16 IC50, B16 cells, concentration causing 50% cell death, values greater than 10 represent a lack of cell death): ≤ 5.00; pIC50 [2, 14]: 6.64; pIC50 [4, 15]: 5.50; pIC50 [5, 16]: 5.66 |
| CN(C)C(=O)c1cccc(Oc2cccc(C(C)(C)NC(=O)OC3CCN4CCC3CC4)c2)c1 (centres unmarked) [Example 288, 1-Aza-bicyclo[3.2.2]nonan-4-yl 2-(3-(3-(dimethylcarbamoyl)phenoxy)phenyl)propan-2-ylcarbamate] | ≤ 5.00 | 7.30 | 6.69 | ≤ 5.00 | 5.93 |  |
| CN(C)C(=O)c1cccc(Oc2cccc(C(C)(C)NC(=O)NC3(C)CN4CCC3CC4)c2)c1 (centres unmarked) [Example 289, N,N-Dimethyl-3-(3-(2-(3-(3-methylquinuclidin-3-yl)ureido)propan-2-yl)phenoxy)benzamide] | 5.03 | 7.04 | 6.98 | ≤ 5.00 | 5.85 |  |
